Target: Cbl-b protein (CBL-B, GST-Tag) (Homo sapiens (Human), UniProt Q13191)
Assay: HTRF based binding assay, affinity to Cbl-b protein
Settings: not given

Cbl-b protein (CBL-B, GST-Tag), sequence (Q13191 whole entry): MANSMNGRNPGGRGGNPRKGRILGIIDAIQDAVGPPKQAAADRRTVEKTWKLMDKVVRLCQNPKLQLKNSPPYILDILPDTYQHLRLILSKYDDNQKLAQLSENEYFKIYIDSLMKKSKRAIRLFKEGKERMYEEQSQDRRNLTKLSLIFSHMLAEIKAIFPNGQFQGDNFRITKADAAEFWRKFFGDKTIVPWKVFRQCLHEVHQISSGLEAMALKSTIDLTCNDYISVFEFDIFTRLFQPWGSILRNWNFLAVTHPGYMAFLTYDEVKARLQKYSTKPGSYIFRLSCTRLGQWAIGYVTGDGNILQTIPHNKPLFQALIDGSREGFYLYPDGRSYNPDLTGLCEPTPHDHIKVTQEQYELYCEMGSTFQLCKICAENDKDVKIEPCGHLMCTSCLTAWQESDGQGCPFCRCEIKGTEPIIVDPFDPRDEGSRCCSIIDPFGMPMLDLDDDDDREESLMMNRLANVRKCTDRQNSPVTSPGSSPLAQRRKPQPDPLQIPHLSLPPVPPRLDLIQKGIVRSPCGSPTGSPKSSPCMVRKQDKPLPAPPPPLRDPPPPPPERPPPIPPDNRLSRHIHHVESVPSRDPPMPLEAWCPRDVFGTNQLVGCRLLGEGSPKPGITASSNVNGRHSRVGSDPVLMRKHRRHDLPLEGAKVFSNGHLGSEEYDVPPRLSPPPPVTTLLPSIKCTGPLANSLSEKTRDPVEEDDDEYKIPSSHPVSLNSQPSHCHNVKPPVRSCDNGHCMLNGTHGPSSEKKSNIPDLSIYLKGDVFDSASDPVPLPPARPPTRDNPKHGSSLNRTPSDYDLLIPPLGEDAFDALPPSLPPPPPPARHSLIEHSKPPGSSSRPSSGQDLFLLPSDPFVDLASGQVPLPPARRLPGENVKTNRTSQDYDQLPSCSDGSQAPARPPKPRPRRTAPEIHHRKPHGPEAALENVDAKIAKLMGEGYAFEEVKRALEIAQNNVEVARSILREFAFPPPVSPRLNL

Row | SMILES | IC50
1 | C#Cc1cc([C@]2(c3nncn3C)C[C@@H](C)C2)cc(-n2cnc3ccc(CN4CCC[C@H](C)C4)cc3c2=O)n1 [Example 97] | 50 to 500 nM
2 | Cn1cnnc1[C@]1(c2cc(OCF)nc(-n3cnc4ccc(CN5CCC[C@H](F)C5)cc4c3=O)c2)C[C@H](C)C1 [Example 98] | 50 to 500 nM
3 | C[C@H]1CCCN(Cc2cc3c(=O)n(-c4cc([C@]5(c6nncn6C)C[C@@H](C)C5)cc(OCF)n4)cnc3cn2)C1 [Example 99] | < 20 nM
4 | C[C@H]1CCCN(Cc2cc(C(F)(F)F)c3ncn(-c4cc([C@]5(c6nncn6C6CCC6)C[C@@H](C)C5)ccn4)c(=O)c3c2)C1 [Example 110] | 50 to 500 nM
5 | C[C@H]1CCCN(Cc2cc(C(F)(F)F)c3ncn(-c4cc([C@]5(c6nncn6C)C[C@@H](CF)C5)ccn4)c(=O)c3c2)C1 [Example 114] | 20 to 50 nM
6 | C[C@H]1CCCN(Cc2cc(C(F)(F)F)c3ncn(-c4cc(C5(c6nncn6C)CC6(CC6)C5)ccn4)c(=O)c3c2)C1 [Example 118] | 20 to 50 nM
7 | Cn1cnnc1[C@]1(c2ccnc(-n3cnc4c(C(F)(F)F)cc(CN5CCC6(CCO6)C5)cc4c3=O)c2)C[C@H](C)C1 (stereo partly drawn) [Example 120] | 500 to 1000 nM
8 | [2H]C([2H])([2H])n1cnnc1C1(c2ccnc(-n3cnc4c(C(F)(F)F)cc(CN5CCC[C@H](C)C5)cc4c3=O)c2)CC(C)C1 (stereo partly drawn) [Example 121] | < 20 nM

Same assay, conditions: HTRF binding, CBL-B (GST-Tag), fluorescence labeled Cbl-b binding probe

Row | SMILES | IC50
9 | C=Cc1cc([C@]2(c3nncn3C)C[C@@H](C)C2)cc(-n2cnc3ccc(CN4CCC[C@H](C)C4)cc3c2=O)n1 [Example 94] | < 20 nM
10 | CC(c1ccc2ncn(-c3cc([C@]4(c5nncn5C)C[C@@H](C)C4)cc(OCF)n3)c(=O)c2c1)N1CCC[C@H](C)C1 (stereo partly drawn) [Example 95] | < 20 nM
11 | C[C@H]1CCCN(Cc2ccc3ncn(-c4cc([C@]5(c6nncn6C)C[C@@H](C)C5)cc(C5CC5)n4)c(=O)c3c2)C1 [Example 96] | < 20 nM
12 | C[C@H]1CCCN(Cc2cc3c(=O)n(-c4cc([C@]5(c6nncn6C)C[C@@H](C)C5)cc(OCF)n4)cnc3cc2F)C1 [Example 100] | < 20 nM
13 | C#CC1CC(c2ccnc(-n3cnc4c(C(F)(F)F)cc(CN5CCC[C@H](C)C5)cc4c3=O)c2)(c2nncn2C)C1 (stereo partly drawn) [Example 101] | < 20 nM
14 | Cn1cnnc1[C@]1(c2cc(OCF)nc(-n3cnc4c(C(F)(F)F)cc(CN5CCC[C@H](F)C5)cc4c3=O)c2)C[C@H](C)C1 [Example 102] | < 20 nM
15 | [2H]C([2H])(c1cc(C(F)(F)F)c2ncn(-c3cccc([C@]4(c5nncn5C)C[C@@H](C)C4)c3)c(=O)c2c1)N1CCC[C@H](C)C1 [Example 104] | < 20 nM
16 | Cn1cnnc1[C@]1(c2ccnc(-n3cnc4c(C(F)(F)F)cc(CN5CCC[C@H](CF)C5)cc4c3=O)c2)C[C@H](C)C1 [Example 105] | < 20 nM
17 | C[C@@H]1CN(Cc2cc(C(F)(F)F)c3ncn(-c4cc([C@]5(c6nncn6C)C[C@@H](C)C5)cc(OCF)n4)c(=O)c3c2)CCC1F (stereo partly drawn) [Example 106] | < 20 nM
18 | C=C(F)c1cc([C@]2(c3nncn3C)C[C@@H](C)C2)cc(-n2cnc3c(C(F)(F)F)cc(CN4CCC[C@H](C)C4)cc3c2=O)n1 [Example 107] | < 20 nM
19 | Cn1cnnc1[C@]1(c2cc(OCF)nc(-n3cnc4c(C(F)(F)F)cc(CN5CCCC(C)(F)C5)cc4c3=O)c2)C[C@H](C)C1 (stereo partly drawn) [Example 108] | < 20 nM
20 | CC1CN(Cc2cc(C(F)(F)F)c3ncn(-c4cc([C@]5(c6nncn6C)C[C@@H](C)C5)cc(OCF)n4)c(=O)c3c2)CCC1(F)F (stereo partly drawn) [Example 109] | < 20 nM
21 | C[C@H]1CCCN(Cc2cc(F)c3ncn(-c4cc([C@]5(c6nncn6C)C[C@@H](C)C5)cc(OCF)n4)c(=O)c3c2)C1 [Example 111] | < 20 nM
22 | C[C@H]1CCCN(Cc2ccc3ncn(-c4cc([C@]5(c6nncn6C)C[C@@H](C)C5)cc(OCF)n4)c(=O)c3c2)C1 [Example 112] | < 20 nM
23 | [2H]c1nnc(C2(c3ccnc(-n4cnc5c(C(F)(F)F)cc(CN6CCC[C@H](C)C6)cc5c4=O)c3)CC(C)C2)n1C(F)F (stereo partly drawn) [Example 113] | < 20 nM
24 | COc1cc([C@]2(c3nncn3C)C[C@@H](C)C2)cc(-n2cnc3c(C(F)(F)F)cc(CN4CCC[C@H](C)C4)cc3c2=O)n1 [Example 115] | < 20 nM
25 | CC1CC(c2cc(OC(F)F)nc(-n3cnc4c(C(F)(F)F)cc(CN5CCC[C@H](C)C5)cc4c3=O)c2)(c2nncn2C)C1 (stereo partly drawn) [Example 117] | < 20 nM
26 | C[C@@H]1CN(Cc2ccc3ncn(-c4cc([C@]5(c6nncn6C)C[C@@H](C)C5)cc(OCF)n4)c(=O)c3c2)CCC1F (stereo partly drawn) [Example 123] | < 20 nM
27 | C[C@H]1CCCN(Cc2ccc3ncn(-c4cc([C@]5(c6nncn6C(F)F)C[C@@H](C)C5)cc(OCF)n4)c(=O)c3c2)C1 [Example 124] | < 20 nM
